Test system: 379773-124-R-J2-PDC spheroid viability
Experiment: Anticancer human tumor 379773-124-R-J2-PDC patient-derived endometrial carcinoma cell line growth inhibition [POLQ]
Settings: spheroids with HUVEC and MSC; for IC50: curve of first compound; for viability, T/C: stronger effect = lower value
How it was run: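 Complex spheroid viability model combining PDC tumour cells with endothelial (HUVEC) and MSC stromal cells. Novobiocin, ART-558 or RP6685 were tested singly and in combination with standard and investigational anticancer drugs. Each was titrated in half-log steps from near clinical Cmax, or from 10 microM where Cmax was unknown.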

[1] = second compound 0.0316 µM, first compound 0.0316 µM
[2] = second compound 0.0316 µM, first compound 0.1 µM
[3] = second compound 0.0316 µM, first compound 0.316 µM
[4] = second compound 0.0316 µM, first compound 1 µM
[5] = second compound 0.0316 µM, first compound 3.16 µM
[6] = second compound 0.0316 µM, first compound 10 µM
[7] = second compound 0.1 µM, first compound 0.0316 µM
[8] = second compound 0.1 µM, first compound 0.1 µM
[9] = second compound 0.1 µM, first compound 0.316 µM
[10] = second compound 0.1 µM, first compound 1 µM
[11] = second compound 0.1 µM, first compound 3.16 µM
[12] = second compound 0.1 µM, first compound 10 µM
[13] = second compound 0.316 µM, first compound 0.0316 µM
[14] = second compound 0.316 µM, first compound 0.1 µM
[15] = second compound 0.316 µM, first compound 0.316 µM
[16] = second compound 0.316 µM, first compound 1 µM
[17] = second compound 0.316 µM, first compound 3.16 µM
[18] = second compound 0.316 µM, first compound 10 µM
[19] = second compound 1 µM, first compound 0.0316 µM
[20] = second compound 1 µM, first compound 0.1 µM
[21] = second compound 1 µM, first compound 0.316 µM
[22] = second compound 1 µM, first compound 1 µM
[23] = second compound 1 µM, first compound 3.16 µM
[24] = second compound 1 µM, first compound 10 µM
[25] = second compound 3.16 µM, first compound 0.0316 µM
[26] = second compound 3.16 µM, first compound 0.1 µM
[27] = second compound 3.16 µM, first compound 0.316 µM
[28] = second compound 3.16 µM, first compound 1 µM
[29] = second compound 3.16 µM, first compound 3.16 µM
[30] = second compound 3.16 µM, first compound 10 µM
[31] = second compound 10 µM, first compound 0.0316 µM
[32] = second compound 10 µM, first compound 0.1 µM
[33] = second compound 10 µM, first compound 0.316 µM
[34] = second compound 10 µM, first compound 1 µM
[35] = second compound 10 µM, first compound 3.16 µM
[36] = second compound 10 µM, first compound 10 µM
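Note: spheroids exposed to drugs for seven days before readout.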
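Throughout, for viability, T/C: percent viability relative to DMSO vehicle control taken as 100%.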

COc1cccc2c1C(=O)c1c(O)c3c(c(O)c1C2=O)CC(O)(C(=O)CO)CC3OC1CC(N)C(O)C(C)O1 (centres undefined) + Nc1ccc(C#CCN(C(=O)Cc2ncc(C(F)(F)F)cc2C(F)(F)F)c2ccc(F)cc2)nn1
IC50 (second compound 0.0316 µM): 78.3 nM | IC50 (second compound 0.1 µM): 75.9 nM | IC50 (second compound 0.316 µM): 71.9 nM | IC50 (second compound 1 µM): 65.5 nM | IC50 (second compound 3.16 µM): 73.4 nM | IC50 (second compound 10 µM): 55.4 nM | viability, T/C [1]: 84.7% | viability, T/C [2]: 41.7% | viability, T/C [3]: 11.1% | viability, T/C [4]: 12.6% | viability, T/C [5]: 1.86% | viability, T/C [6]: 0.23% | viability, T/C [7]: 87.7% | viability, T/C [8]: 37.4% | viability, T/C [9]: 15.2% | viability, T/C [10]: 11.9% | viability, T/C [11]: 2.13% | viability, T/C [12]: 0.18% | viability, T/C [13]: 90.3% | viability, T/C [14]: 33.3% | viability, T/C [15]: 11.8% | viability, T/C [16]: 10.2% | viability, T/C [17]: 1.88% | viability, T/C [18]: 0.18% | viability, T/C [19]: 89.8% | viability, T/C [20]: 26% | viability, T/C [21]: 9.42% | viability, T/C [22]: 10.8% | viability, T/C [23]: 1.71% | viability, T/C [24]: 0.23% | viability, T/C [25]: 85.1% | viability, T/C [26]: 37.7% | viability, T/C [27]: 11.3% | viability, T/C [28]: 10.1% | viability, T/C [29]: 3.23% | viability, T/C [30]: 1.06% | viability, T/C [31]: 71.2% | viability, T/C [32]: 26.8% | viability, T/C [33]: 10.9% | viability, T/C [34]: 9.24% | viability, T/C [35]: 1.29% | viability, T/C [36]: 0.25%

CCCS(=O)(=O)Nc1ccc(F)c(C(=O)c2c[nH]c3ncc(-c4ccc(Cl)cc4)cc23)c1F + Cc1cccc(N(C)C(=O)C2C(O)CCN2c2nc(C)cc(C(F)(F)F)c2C#N)c1
IC50 (second compound 0.0316 µM): > 10000 nM | IC50 (second compound 0.1 µM): > 10000 nM | IC50 (second compound 0.316 µM): > 10000 nM | IC50 (second compound 1 µM): > 10000 nM | IC50 (second compound 3.16 µM): > 10000 nM | IC50 (second compound 10 µM): > 10000 nM | viability, T/C [1]: 88.6% | viability, T/C [2]: 102% | viability, T/C [3]: 90.9% | viability, T/C [4]: 99.4% | viability, T/C [5]: 82.1% | viability, T/C [6]: 62.3% | viability, T/C [7]: 101% | viability, T/C [8]: 89.5% | viability, T/C [9]: 95.2% | viability, T/C [10]: 87.4% | viability, T/C [11]: 86.6% | viability, T/C [12]: 58.7% | viability, T/C [13]: 97.4% | viability, T/C [14]: 98.5% | viability, T/C [15]: 94.9% | viability, T/C [16]: 87.1% | viability, T/C [17]: 78.5% | viability, T/C [18]: 60.1% | viability, T/C [19]: 98.9% | viability, T/C [20]: 88.7% | viability, T/C [21]: 85.2% | viability, T/C [22]: 86.5% | viability, T/C [23]: 80.3% | viability, T/C [24]: 64.3% | viability, T/C [25]: 92% | viability, T/C [26]: 90.4% | viability, T/C [27]: 85.7% | viability, T/C [28]: 85.3% | viability, T/C [29]: 73.8% | viability, T/C [30]: 63% | viability, T/C [31]: 89.9% | viability, T/C [32]: 92.1% | viability, T/C [33]: 87.7% | viability, T/C [34]: 83.9% | viability, T/C [35]: 77.8% | viability, T/C [36]: 53.9%

Reference: PubChem BioAssay AID1963848 (Molecular Pharmacology Branch, DTP, NCI, 2024)
